Measurements reported in the NIST ThermoML archive (doi:10.1016/j.jct.2016.09.030).

Test: xn = mol fraction of the nth substance listed
Settings: 100 kPa, Liquid; for viscosity: Concentric cylinders viscometry; for mass density: Vibrating tube method

CCOC(=O)CCC(=O)OCC [diethyl butanedioate] + CC(C)CCO
Settings | mass density [kg/m3] | viscosity [mPa·s]
288.15 K, x1 = 0.1 | 845.17 | 3.582
288.15 K, x1 = 0.2 | 875.25 | 3.029
288.15 K, x1 = 0.3 | 902.72 | 2.76
288.15 K, x1 = 0.3999 | 927.82 | 2.625
288.15 K, x1 = 0.5 | 951.1 | 2.58
288.15 K, x1 = 0.5999 | 972.64 | 2.6
288.15 K, x1 = 0.7 | 992.67 | 2.667
288.15 K, x1 = 0.7999 | 1011.24 | 2.808
288.15 K, x1 = 0.9002 | 1028.55 | 2.943
288.15 K, x1 = 1 | 1044.83 | 3.195
293.15 K, x1 = 0.1 | 841.19 | 3.097
293.15 K, x1 = 0.2 | 871.04 | 2.621
293.15 K, x1 = 0.3 | 898.32 | 2.396
293.15 K, x1 = 0.3999 | 923.26 | 2.283
293.15 K, x1 = 0.5 | 946.4 | 2.25
293.15 K, x1 = 0.5999 | 967.82 | 2.271
293.15 K, x1 = 0.7 | 987.73 | 2.332
293.15 K, x1 = 0.7999 | 1006.2 | 2.455
293.15 K, x1 = 0.9002 | 1023.43 | 2.573
293.15 K, x1 = 1 | 1039.63 | 2.807
298.15 K, x1 = 0.1 | 837.19 | 2.712
298.15 K, x1 = 0.2 | 866.82 | 2.321
298.15 K, x1 = 0.3 | 893.91 | 2.139
298.15 K, x1 = 0.3999 | 918.7 | 2.053
298.15 K, x1 = 0.5 | 941.69 | 2.025
298.15 K, x1 = 0.5999 | 962.98 | 2.048
298.15 K, x1 = 0.7 | 982.79 | 2.103
298.15 K, x1 = 0.7999 | 1001.17 | 2.207
298.15 K, x1 = 0.9002 | 1018.32 | 2.308
298.15 K, x1 = 1 | 1034.44 | 2.491
303.15 K, x1 = 0.1 | 833.18 | 2.377
303.15 K, x1 = 0.2 | 862.59 | 2.056
303.15 K, x1 = 0.3 | 889.5 | 1.905
303.15 K, x1 = 0.3999 | 914.12 | 1.834
303.15 K, x1 = 0.5 | 936.98 | 1.817
303.15 K, x1 = 0.5999 | 958.15 | 1.838
303.15 K, x1 = 0.7 | 977.86 | 1.889
303.15 K, x1 = 0.7999 | 996.14 | 1.981
303.15 K, x1 = 0.9002 | 1013.2 | 2.069
303.15 K, x1 = 1 | 1029.25 | 2.229
308.15 K, x1 = 0.1 | 829.15 | 2.096
308.15 K, x1 = 0.2 | 858.35 | 1.831
308.15 K, x1 = 0.3 | 885.07 | 1.707
308.15 K, x1 = 0.3999 | 909.54 | 1.65
308.15 K, x1 = 0.5 | 932.26 | 1.638
308.15 K, x1 = 0.5999 | 953.31 | 1.661
308.15 K, x1 = 0.7 | 972.91 | 1.707
308.15 K, x1 = 0.7999 | 991.1 | 1.789
308.15 K, x1 = 0.9002 | 1008.09 | 1.868
308.15 K, x1 = 1 | 1024.08 | 2.008
313.15 K, x1 = 0.1 | 825.09 | 1.867
313.15 K, x1 = 0.2 | 854.08 | 1.649
313.15 K, x1 = 0.3 | 880.62 | 1.547
313.15 K, x1 = 0.3999 | 904.94 | 1.502
313.15 K, x1 = 0.5 | 927.52 | 1.496
313.15 K, x1 = 0.5999 | 948.47 | 1.518
313.15 K, x1 = 0.7 | 967.97 | 1.562
313.15 K, x1 = 0.7999 | 986.08 | 1.635
313.15 K, x1 = 0.9002 | 1002.99 | 1.706
313.15 K, x1 = 1 | 1018.9 | 1.821
318.15 K, x1 = 0.1 | 821.01 | 1.656
318.15 K, x1 = 0.2 | 849.79 | 1.475
318.15 K, x1 = 0.3 | 876.16 | 1.391
318.15 K, x1 = 0.3999 | 900.33 | 1.356
318.15 K, x1 = 0.5 | 922.78 | 1.354
318.15 K, x1 = 0.5999 | 943.61 | 1.377
318.15 K, x1 = 0.7 | 963.02 | 1.419
318.15 K, x1 = 0.7999 | 981.04 | 1.485
318.15 K, x1 = 0.9002 | 997.88 | 1.549
318.15 K, x1 = 1 | 1013.72 | 1.66
323.15 K, x1 = 0.1 | 816.9 | 1.496
323.15 K, x1 = 0.2 | 845.48 | 1.346
323.15 K, x1 = 0.3 | 871.68 | 1.271
323.15 K, x1 = 0.3999 | 895.7 | 1.247
323.15 K, x1 = 0.5 | 918.03 | 1.243
323.15 K, x1 = 0.5999 | 938.75 | 1.27
323.15 K, x1 = 0.7 | 958.06 | 1.308
323.15 K, x1 = 0.7999 | 975.99 | 1.369
323.15 K, x1 = 0.9002 | 992.76 | 1.428
323.15 K, x1 = 1 | 1008.55 | 1.523
